Reference: US20180264134A1, “A COMPOSITION OF GOLD NANOPARTICLES HAVING ANTIMICROBIAL PEPTIDES BOUND ON THEIR SURFACE FOR USE THE TREATMENT OF WOUND HEALING OR IN THE TREATMENT OF ISCHEMIC OR VASCULAR DISEASES OR IN THE TREATMENT OF SKIN DISORDERS” (priority 2015, published 2018)
“Also recorded” adds a separate entry of the source.

Experiments:
HUVECs = assay: Membrane potential by DiOC5(3) flow cytometry in HUVECs; type: cell-based, human; conditions: 5 h exposure
Procedure: In an embodiment the membrane potential can be determined by: HUVEC and HaCaT cells were seeded at a density of 4×10^4 cells/cm^2 and in 24-well plates and cultured for 24 h. Either LL37 Au-NPs or Au-NPs suspended in culture medium at different concentrations (25, 50, 100 and 200 μg/mL, n=3) were added to cells. Soluble LL37 were also used in the concentration of 0.5, 1, 10, 30, 60 μg/mL. After 5 and 48 h, cells were harvested, resuspended in medium with 5 nM of DiOC5(3) (Sigma-Aldrich) and incubated for 5 min at room temperature in the dark, prior to the analysis with the flow cytometer (FACSCalibur, BD Biosciences). Cells treated with gramicidin (10 μM) or valinomycin (10 μM) were used as controls for cell depolarization and hyperpolarization, respectively.

HaCaT cells [1] = assay: Whole-cell patch-clamp recordings of HaCaT cells; type: cell-based, human
Procedure: In an embodiment, the NP bioactivity was carried out as follows: electrophysiological recordings. Whole-cell patch-clamp recordings of HaCaT cells were performed using borosilicate glass patch pipettes with a resistance of 2-5 MΩ and compensating the series resistance by 50-60% with a List EPC-7 amplifier, as described previously^56. The pipettes were filled with (in mM): 135 K-gluconate, 10 CsCl, 0.4 NaH2PO4, 0.73 CaCl2, 1 MgCl2, 1 EGTA, and 14 HEPES (pH 7.4). The external solution contained (mM): 140 NaCl, 3 KCl, 2 CaCl2, 1 MgCl2, 15 HEPES and 10 glucose (pH 7.4). Cells were rapidly perfused as previously described and all experiments were carried out at RT (22-25° C.). The currents were recorded at −70 mV, filtered (2-pole Butterworth filter, −12 dB/octave) and digitized to a personal computer at a sampling rate of 1 kHz for analysis using pCLAMP software (AXON instruments). Charge transfer was calculated by the integration of the area under the current in the first 100 s (Q100) from the beginning of the exposure to Au NPs, LL37 or LL37-Au NPs in the absence or presence of apyrase (darker background; 20 U/mL; Sigma).

venous leg ulcers = conditions: cited from earlier work
HaCaT cells [2] = assay: Scratch assay in HaCaT; type: cell-based, human
Procedure: Scratch Assay in HaCaT. HaCaT cells (passage 35-40) were seeded at a density of 2×10^4 cells/well in fibronectin-coated 96-well plate in DMEM supplemented with 1% (v/v) penicillin and streptomycin and 10% (v/v) FBS. After 48 h, cells were firstly starved for 15 h in DMEM with 0.5% FBS and then incubated with LL-37 (1 μg/mL), LL-37 AUNPs and AUNPs (200 μg/mL) for 5 h at 37° C. and 5% CO2. All the chemical inhibitors for FPRL1, EGFR, ADAM17 and Purinergic receptor were added into cells 1 hour before and for all the incubation time with LL37, LL37-Au NPs or AuNPs. After treatments, cells were washed twice with PBS to remove non-internalized NPs and a scratch was created with a sterile pipet tip. The detached cells were washed twice with PBS and then plates were re-coated with fibronectin (10 μg/mL in starvation medium) for 1 hour at 37° C. At this point (t=0), the first images were taken on In Cell Microscope 2000 (GE Healthcare) (objective 2×). Then cells were washed and maintained in starvation medium up to 72 h. During this time, cell migration was monitored and more images were taken up to 72 h. Scratch areas were quantified using the AxioVision software (Carl Zeiss). Wound areas were normalized by the initial area (n=8 images). On the other hand, to test the prolonged effect of LL37-Au NPs on HaCaT migration, cells were plated in fibronectin-coated 24-well plate (2×10^5 cells/well), after 48 h cells were starved for 15 h in DMEM with 0.5% FBS and then the scratch was made with a sterile pipet tip. Only after the cells were incubated with LL-37 (1 μg/mL), LL37-Au NPs and AuNPs (15 μg/mL) in starvation medium up to 96 h. During this time, cell migration was monitored and images were taken and scratch area quantified.
In an embodiment, the NP bioactivity was carried out by scratch assay. Keratinocytes (passage 35-40) were seeded at a density of 2×10^4 cells/well in fibronectin-coated 96-well plate in DMEM supplemented with 1% (v/v) penicillin and streptomycin and 10% (v/v) FBS. After 48 h, cells were initially starved for 15 h in DMEM with 0.5% FBS, inactivated with mitomycin (5 μg/mL) for 2 h, and then incubated with LL37 (1 μg/mL), LL37-Au NPs or Au NPs (both at 200 μg/mL) for 5 h at 37° C. and 5% CO2. In case of chemical inhibition, the chemical inhibitors for FPRL1 (WRW4, Calbiochem, 10 μM), EGFR (Erlotinib HCL, OSI-744, Selleck Chemicals, 2 nM), ADAM17 (Marimastat, Sigma, 10 μM), P2X (PPADS, Sigma, 100 μM), for P2X7 (A-740003, Sigma, at a concentration of 500 nM), were added to the cells 1 h before the incubation with LL37 peptide and LL37-Au NPs and then maintained during the assay. […] After the 5 h treatment, cells were washed twice with PBS to remove non-internalized NPs and a scratch was created with a sterile pipette tip. The detached cells were washed twice with PBS and then plates were re-coated with fibronectin (10 μg/mL in starvation medium) for 1 h at 37° C. Cells were washed and maintained in starvation medium up to 72 h. Cell migration was monitored overtime by a in Cell Microscope 2000 (GE Healthcare) (objective 2×). The cells treated with LL37 peptide were cultured with starvation medium containing LL37 for the entire duration of the experiment. Scratch areas were quantified using the AxioVision software (Carl Zeiss). Wound areas were normalized by the initial area (n=6 images). In case of siRNA knock-down studies, on-target plus human ADAM17 siRNA or P2X7R siRNA (both from Dharmacon) were used to silence ADAM17 or P2X7 before performing the scratch assay. Keratinocytes were transfected with 50 nM siRNA using 0.25 μL of Lipofectamine RNAiMAX (Life Technologies) for 24 h in antibiotic-free complete medium before starting the scratch assay. […]

**Q.** With `CC[C@H](C)[C@H](NC(=O)[C@H](CCCCN)NC(=O)[C@H](CCC(=O)O)NC(=O)[C@H](CCCCN)NC(=O)[C@H](CO)NC(=O)[C@H](CCCCN)NC(=O)[C@H](CCCNC(=N)N)NC(=O)[C@H](Cc1ccccc1)NC(=O)[C@H](Cc1ccccc1)NC(=O)[C@H](CC(=O)O)NC(=O)CNC(=O)[C@H](CC(C)C)NC(=O)[C@@H](N)CC(C)C)C(=O)NCC(=O)N[C@@H](CCCCN)C(=O)N[C@@H](CCC(=O)O)C(=O)N[C@@H](Cc1ccccc1)C(=O)N[C@@H](CCCCN)C(=O)N[C@@H](CCCNC(=N)N)C(=O)N[C@H](C(=O)N[C@H](C(=O)N[C@@H](CCC(N)=O)C(=O)N[C@@H](CCCNC(=N)N)C(=O)N[C@H](C(=O)N[C@@H](CCCCN)C(=O)N[C@@H](CC(=O)O)C(=O)N[C@@H](Cc1ccccc1)C(=O)N[C@@H](CC(C)C)C(=O)N[C@@H](CCCNC(=N)N)C(=O)N[C@@H](CC(N)=O)C(=O)N[C@@H](CC(C)C)C(=O)N[C@H](C(=O)N1CCC[C@H]1C(=O)N[C@@H](CCCNC(=N)N)C(=O)N[C@H](C(=O)N[C@@H](CCC(=O)O)C(=O)N[C@@H](CO)C(=O)N[C@@H](CS)C(N)=O)[C@@H](C)O)C(C)C)[C@@H](C)CC)C(C)C)[C@@H](C)CC` [LL37] as the compound, how does the concentration causing depolarization (HUVECs) read?
**A.** above 30 μg/mL

**Q.** And the concentration causing hyperpolarization (HUVECs)?
**A.** below 30 μg/mL

**Q.** And the “effect of apyrase on charge transfer / inward current” value (HaCaT cells [1]; apyrase 20 U/mL)?
**A.** no decrease

**Q.** What about the inward current (HaCaT cells [1]; holding potential −70 mV) of the same compound?
**A.** elicited an inward current

**Q.** And the “primary safety and tolerability end-point” value (venous leg ulcers; patients with venous leg ulcers)?
**A.** met

**Q.** What about the “healing rate compared with placebo” value (venous leg ulcers; twice per week, 0.5 mg/mL) of the same compound?
**A.** statistically significant improved healing rate

**Q.** What about the “effect of P2X7 antagonist A-740003 on migration” value (HaCaT cells [2]; A-740003 500 nM) of the same compound?
**A.** inhibited; also recorded: significant decrease

**Q.** What about the “effect of EGFR inhibitor Erlotinib on migration” value (HaCaT cells [2]; Erlotinib 2 nM) of the same compound?
**A.** decreased significantly

**Q.** What about the migration of keratinocytes (HaCaT cells [2]; LL37 1 μg/mL, NPs 200 μg/mL, listed as LL37 peptide) of the same compound?
**A.** induced the migration; also recorded: induce the migratory properties

**Q.** What about the “effect of ADAM inhibitor Marimastat on migration” value (HaCaT cells [2]; Marimastat 10 μM) of the same compound?
**A.** significantly decreased; also recorded: significant decrease

**Q.** What about the “effect of purinergic antagonist PPADS on migration” value (HaCaT cells [2]; PPADS 100 μM) of the same compound?
**A.** inhibited; also recorded: significant decrease

**Q.** And the “effect of FPRL-1 antagonist WRW4 on migration” value (HaCaT cells [2]; WRW4 10 μM)?
**A.** no measurable effect

**Q.** And the “effect of ADAM17 siRNA knockdown on migration” value (HaCaT cells [2]; siRNA ADAM17)?
**A.** decreased the migratory properties; also recorded: reduced migratory effect

**Q.** And the “effect of P2X7 siRNA knockdown on migration” value (HaCaT cells [2]; siRNA P2X7)?
**A.** inhibited; also recorded: reduced migratory effect
